Laboratory results reported in publication PMC7419507, “In vitro Cas9-assisted editing of modular polyketide synthase genes to produce desired natural product derivatives” (Nature Communications, 2020).
Values joined by “and” are separate entries in the source; they are usually repeats but may differ in a detail not shown here. Equal values may be shown once.

Key:
[1] = Cytotoxicity assay (CellTiter-Glo, 72 h), MESO-1; assay type: cell-based; conditions: human; for viability at 72 h: MESO-1 cells (malignant pleural mesothelioma), MESO-1 cells, read-out: Plateau level of cell viability in the dose-response curve; for viability at 72 h, 9.53674e-05 uM / viability at 72 h, 0.000190735 uM / viability at 72 h, 0.00038147 uM / viability at 72 h, 0.000762939 uM / viability at 72 h, 0.00152588 uM / viability at 72 h, 0.00305176 uM / viability at 72 h, 0.00610352 uM / viability at 72 h, 0.012207 uM / viability at 72 h, 0.0244141 uM / viability at 72 h, 0.0488281 uM / viability at 72 h, 0.0976562 uM / viability at 72 h, 0.195312 uM / viability at 72 h, 0.390625 uM / viability at 72 h, 0.78125 uM / viability at 72 h, 1.5625 uM / viability at 72 h, 3.125 uM / viability at 72 h, 6.25 uM / viability at 72 h, 12.5 uM / viability at 72 h, 25 uM / viability at 72 h, 50 uM: MESO-1 malignant pleural mesothelioma cells, raw replicate data, read-out: MESO1 viability (%); for viability at 72 h, 9.53674e-05 uM: conc 9.53674e-5 uM; for viability at 72 h, 0.000190735 uM: conc 0.000190735 uM; for viability at 72 h, 0.00038147 uM: conc 0.00038147 uM; for viability at 72 h, 0.000762939 uM: conc 0.000762939 uM; for viability at 72 h, 0.00152588 uM: conc 0.00152588 uM; for viability at 72 h, 0.00305176 uM: conc 0.00305176 uM; for viability at 72 h, 0.00610352 uM: conc 0.00610352 uM; for viability at 72 h, 0.012207 uM: conc 0.012207 uM; for viability at 72 h, 0.0244141 uM: conc 0.0244141 uM; for viability at 72 h, 0.0488281 uM: conc 0.0488281 uM; for viability at 72 h, 0.0976562 uM: conc 0.0976562 uM; for viability at 72 h, 0.195312 uM: conc 0.195312 uM; for viability at 72 h, 0.390625 uM: conc 0.390625 uM; for viability at 72 h, 0.78125 uM: conc 0.78125 uM; for viability at 72 h, 1.5625 uM: conc 1.5625 uM; for viability at 72 h, 3.125 uM: conc 3.125 uM; for viability at 72 h, 6.25 uM: conc 6.25 uM; for viability at 72 h, 12.5 uM: conc 12.5 uM; for viability at 72 h, 25 uM: conc 25 uM; for viability at 72 h, 50 uM: conc 50 uM
Description: (§1) Jurkat cells were cultured in RPMI1640 medium supplemented with 10% foetal bovine serum, penicillin (50 U/ml), streptomycin (50 μg/ml), and Glutamax. SKOV-3 cells were cultured in DMEM medium supplemented with 10% fetal bovine serum, penicillin (50 U/ml), and streptomycin (50 μg/ml). MESO-1 cells were cultured in RPMI1640 medium supplemented with 10% fetal bovine serum, penicillin (50 U/ml), and streptomycin (50 μg/ml). All cell lines were seeded in a 384-well plate at a density of 1000 cells/well in 20 μl of media and incubated at 37 °C in a humidified incubator with 5% CO2. After 4 h, 2-fold dilution samples resolved in DMSO were added to the cell culture at the concentration of 0.5% (0.1 μl) and incubated for 72 h. Cell viabilities were measured using a CellTiter-Glo luminescent cell viability assay and EnVision multilabel plate reader.

[2] = system: malignant pleural mesothelioma MESO-1 cells; experiment: Cytotoxicity assay (CellTiter-Glo, 72 h), MESO-1; assay type: cell-based; conditions: raw replicate data
Description: as §1

CO[C@H]1C[C@@H]2CC[C@@H](C)[C@@](O)(O2)C(=O)C(=O)N2CCCC[C@H]2C(=O)O[C@H]([C@H](C)C[C@@H]2CC[C@@H](O)[C@H](OC)C2)CC(=O)[C@H](C)/C=C(\C)[C@@H](O)[C@@H](OC)C(=O)[C@H](C)C[C@H](C)/C=C/C=C/C=C/1C [Compound 1, rapamycin, reference compound]
viability at 72 h [1]: ~75% | viability at 72 h, 9.53674e-05 uM [1]: 79% | viability at 72 h, 0.000190735 uM [1]: 73.6% | viability at 72 h, 0.00038147 uM [1]: 83.4% | viability at 72 h, 0.000762939 uM [1]: 73.1% | viability at 72 h, 0.00152588 uM [1]: 116% | viability at 72 h, 0.00305176 uM [1]: 69.5% | viability at 72 h, 0.00610352 uM [1]: 78.3% | viability at 72 h, 0.012207 uM [1]: 77.6% | viability at 72 h, 0.0244141 uM [1]: 75.2% | viability at 72 h, 0.0488281 uM [1]: 75% | viability at 72 h, 0.0976562 uM [1]: 77% | viability at 72 h, 0.195312 uM [1]: 74.8% | viability at 72 h, 0.390625 uM [1]: 75.6% | viability at 72 h, 0.78125 uM [1]: 68.5% | viability at 72 h, 1.5625 uM [1]: 76.4% | viability at 72 h, 3.125 uM [1]: 73.6% | viability at 72 h, 6.25 uM [1]: 74.3% | viability at 72 h, 12.5 uM [1]: 71.1% | viability at 72 h, 25 uM [1]: 63.9% | viability at 72 h, 50 uM [1]: 1.1% | MESO1 viability (%) ([2]; conc 9.53674e-5 uM): 78.2% and 78.1% | MESO1 viability (%) ([2]; conc 0.000190735 uM): 77.7% and 77.2% | MESO1 viability (%) ([2]; conc 0.00038147 uM): 77.9% and 86.0% | MESO1 viability (%) ([2]; conc 0.000762939 uM): 70.2% and 70.0% | MESO1 viability (%) ([2]; conc 0.00152588 uM): 112.8% and 111.2% | MESO1 viability (%) ([2]; conc 0.00305176 uM): 76.5% | MESO1 viability (%) ([2]; conc 0.00610352 uM): 75.4% and 78.7% | MESO1 viability (%) ([2]; conc 0.012207 uM): 72.8% and 76.2% | MESO1 viability (%) ([2]; conc 0.0244141 uM): 77.3% | MESO1 viability (%) ([2]; conc 0.0488281 uM): 71.0% and 73.9% | MESO1 viability (%) ([2]; conc 0.0976562 uM): 74.5% and 75.3% | MESO1 viability (%) ([2]; conc 0.195312 uM): 73.7% and 71.3% | MESO1 viability (%) ([2]; conc 0.390625 uM): 76.1% | MESO1 viability (%) ([2]; conc 0.78125 uM): 74.4% and 74.1% | MESO1 viability (%) ([2]; conc 1.5625 uM): 76.3% | MESO1 viability (%) ([2]; conc 3.125 uM): 70.7% and 70.8% | MESO1 viability (%) ([2]; conc 6.25 uM): 70.6% and 74.9% | MESO1 viability (%) ([2]; conc 12.5 uM): 61.9% and 67.0% | MESO1 viability (%) ([2]; conc 25 uM): 64.2% and 64.1% | MESO1 viability (%) ([2]; conc 50 uM): 0.7% and 0.8%

COC1CC2CCC(C)C(O)(O2)C(=O)C(=O)N2CCCCC2C(=O)OC(C(C)CC2CCC(O)C(OC)C2)CCC(C)C=C(C)C(O)C(OC)C(=O)C(C)CC(C)C=CC=CC=C1C (stereo not shown) [Compound 16, 32-desketorapamycin]
viability at 72 h [1]: ~75% | viability at 72 h, 9.53674e-05 uM [1]: 102% | viability at 72 h, 0.000190735 uM [1]: 86.2% | viability at 72 h, 0.00038147 uM [1]: 94.8% | viability at 72 h, 0.000762939 uM [1]: 80.3% | viability at 72 h, 0.00152588 uM [1]: 82.2% | viability at 72 h, 0.00305176 uM [1]: 74.9% | viability at 72 h, 0.00610352 uM [1]: 80.5% | viability at 72 h, 0.012207 uM [1]: 73.8% | viability at 72 h, 0.0244141 uM [1]: 74.4% | viability at 72 h, 0.0488281 uM [1]: 72.5% | viability at 72 h, 0.0976562 uM [1]: 78.4% | viability at 72 h, 0.195312 uM [1]: 68.5% | viability at 72 h, 0.390625 uM [1]: 78.4% | viability at 72 h, 0.78125 uM [1]: 66.1% | viability at 72 h, 1.5625 uM [1]: 73.1% | viability at 72 h, 3.125 uM [1]: 67.9% | viability at 72 h, 6.25 uM [1]: 67.3% | viability at 72 h, 12.5 uM [1]: 59.2% | viability at 72 h, 25 uM [1]: 53.2% | viability at 72 h, 50 uM [1]: 31.7% | MESO1 viability (%) ([2]; conc 9.53674e-5 uM): 98.1% and 96.4% | MESO1 viability (%) ([2]; conc 0.000190735 uM): 91.1% and 98.0% | MESO1 viability (%) ([2]; conc 0.00038147 uM): 95.4% and 92.4% | MESO1 viability (%) ([2]; conc 0.000762939 uM): 78.9% and 75.5% | MESO1 viability (%) ([2]; conc 0.00152588 uM): 89.1% and 81.4% | MESO1 viability (%) ([2]; conc 0.00305176 uM): 75.1% and 66.9% | MESO1 viability (%) ([2]; conc 0.00610352 uM): 75.6% and 76.2% | MESO1 viability (%) ([2]; conc 0.012207 uM): 76.9% and 75.8% | MESO1 viability (%) ([2]; conc 0.0244141 uM): 81.3% and 75.2% | MESO1 viability (%) ([2]; conc 0.0488281 uM): 73.0% and 74.7% | MESO1 viability (%) ([2]; conc 0.0976562 uM): 75.8% | MESO1 viability (%) ([2]; conc 0.195312 uM): 76.9% and 68.9% | MESO1 viability (%) ([2]; conc 0.390625 uM): 78.5% | MESO1 viability (%) ([2]; conc 0.78125 uM): 69.3% and 68.9% | MESO1 viability (%) ([2]; conc 1.5625 uM): 73.6% and 69.8% | MESO1 viability (%) ([2]; conc 3.125 uM): 61.9% and 65.8% | MESO1 viability (%) ([2]; conc 6.25 uM): 68.9% and 66.9% | MESO1 viability (%) ([2]; conc 12.5 uM): 60.8% and 58.2% | MESO1 viability (%) ([2]; conc 25 uM): 49.9% and 47.7% | MESO1 viability (%) ([2]; conc 50 uM): 33.7% and 30.2%
